Series [1] deals with T1, human interleukin-23 receptor (recombinant human IL-23R-Fc chimera) (Homo sapiens, UniProt Q5VWK5).
T1 construct: Fc (IgG Fc fusion)
Briefly: Human ELISA IL23/IL23R (assay for specific human IL23R antagonists). It counts as binding. The note with it: Table 10; read-out: Human ELISA IL23/IL23R IC50. The method in brief:
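Plates coated overnight at 4 °C with human IL23 ([…]), blocked, then serially diluted peptides added with recombinant human IL-23R-Fc (0.1 μg/ml final) for 60 min at room temperature. Bound receptor detected with anti-human IgG1-HRP and fluorogenic peroxidase substrate.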
(In an ELISA, binding on a coated surface is turned into a signal by an enzyme label.)

Series [2] relates to IL-23 induced STAT3 signaling in HEK-Blue™ IL-23 cells. Put plainly: IL-23 induced STAT3 signaling in HEK-Blue IL-23 cells (SEAP reporter). The series is classed as cell-based. The note with it: human IL23 0.25 ng/ml, read-out: pSTAT3. The method, boiled down: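 HEK-Blue IL-23 cells (10,000/well) pre-incubated 60 min at 37 °C with serially diluted peptides, then stimulated overnight with human IL-23 (0.25 ng/ml final). STAT3-driven SEAP in supernatant detected with QUANTI-Blue after 45 min at RT (OD 620-655 nm); dose-response curves fitted.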

The next series deals with T2, Pepsin.
T2 construct: purchased Merck Millipore
Briefly: Protease stability in simulated gastric fluid (Pepsin-SGF, FaSSGF). The series is classed as in vitro ADME. The note with it: simulated gastric fluid with pepsin (Pepsin-SGF), 60 min, 1 μM peptide, 37° C., read-out: FaSSGF 60 (min), remaining percent of peptide. The method in brief:
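Peptides at 1 μM final in pepsin-containing SGF at 37° C, sampled at 0, 60, 120 and 240 min, quenched with ethanol (0.1% HCOOH). Analysed by LCMS/MS; percent remaining from peak area relative to time 0 (set to 100%).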

The next series has as its system Pancreatin. Put plainly: Protease stability in simulated intestinal fluid (Pancreatin-SIF, FaSSIF). The note with it: 1 μM peptide, 37° C.; for remaining at 1 h, 1 µM: 60 min, read-out: FaSSIF 60 (min), remaining percent of peptide; for remaining at 2 h, 1 µM: 120 min, read-out: FaSSIF 120 (min), remaining percent of peptide; for remaining at 4 h, 1 µM: 240 min, read-out: FaSSIF 240 (min), remaining percent of peptide. The series is classed as in vitro ADME. The method, boiled down: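 Peptide (1 μM final) was incubated at 37° C in simulated intestinal fluid containing pancreatin (1 mg per 10 mL SIF concentrate). Samples were quenched with ethanol/0.1% HCOOH at 0, 60, 120 and 240 min and analysed by LC-MS/MS. Percent remaining is the peak area relative to time 0 (100%).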

Starred links: 1 amine or outer side, 2 acyl side, 3 side chain; linkers in the order of their positions; H or OH if unused. Positions of bridges follow the written chain, without caps; N, C: chain ends. Non-standard residues stand in square brackets, D forms with d. Residues, ends and D or L forms follow the SMILES beside them. *: point of attachment. X6 = O=C(CCC(=O)[*:3])N[C@@H](CS[*:2])C(=O)[*:1]; Trp(7-Me) = Cc1cccc2c(C[C@H](N)C(=O)O)c[nH]c12; X1 = O=C(CCCCN[*:3])N[C@@H](CS[*:2])C(=O)[*:1]; 2Nal = N[C@@H](Cc1ccc2ccccc2c1)C(=O)O; Palmitoyl = CCCCCCCCCCCCCCCC(=O)*; 3Pal = N[C@@H](Cc1cccnc1)C(=O)O; Lys(Me) = CNCCCC[C@H](N)C(=O)O; αMeL = CC(C)C[C@](C)(N)C(=O)O; αMeK = C[C@](N)(CCCCN)C(=O)O; Me2NCH2CH2 = CN(C)CC*; Aib = CC(C)(N)C(=O)O; Ava = NCCCCC(=O)O; Sar = CNCC(=O)O

The source of these data is US20260258084A1, “New Peptides as Selective IL-23 Receptor Antagonists” (Sanofi, priority 2022, published 2026).

As to `Cc1cccc2c(C[C@@H]3NC(=O)[C@H]([C@@H](C)O)NC(=O)[C@H](CC(N)=O)NC(=O)[C@@H]4CSSC[C@H](NC(=O)[C@H](CCC(N)=O)NC3=O)C(=O)N[C@@H](Cc3ccc(OCCN(C)C)cc3)C(=O)N[C@@H](Cc3ccc5ccccc5c3)C(=O)NC(C)(C)C(=O)N[C@H](C(=O)N[C@@H](CC(N)=O)C(=O)N[C@@H](Cc3cccnc3)C(=O)N(C)CC(N)=O)CCC(=O)NCCCCC(=O)N4)c[nH]c12` [compound 62] ([Ava]CNT[Trp(7-Me)]QCY(Me2NCH2CH2)[2Nal][Aib]EN[3Pal][Sar]-NH2; disulfide 2-7; lactam N-11), the IC50 in series [1] is 0.35 nM. For the same compound, the IC50 in series [2] came out at 0.2 nM. Besides, in the series on Pepsin, the amount remaining at 1 h, 1 µM was 100%. Further, in the series with Pancreatin, the amount remaining at 1 h, 1 µM was 95%; the fraction remaining at 2 h, 1 µM is 87%; the fraction remaining at 4 h, 1 µM is 84%.

Consider `CC(=O)NCCCC[C@@H]1NC(=O)[C@H](Cc2c[nH]c3c(C)cccc23)NC(=O)[C@H]([C@@H](C)O)NC(=O)[C@H](CC(N)=O)NC(=O)[C@@H]2CSSC[C@H](NC1=O)C(=O)N[C@@H](Cc1ccc(OCCN(C)C)cc1)C(=O)N[C@@H](Cc1ccc3ccccc3c1)C(=O)NC(C)(C)C(=O)N[C@H](C(=O)N[C@@H](CC(N)=O)C(=O)N[C@@H](Cc1cccnc1)C(=O)N(C)CC(N)=O)CCC(=O)NCCCCC(=O)N2` [compound 64] ([Ava]CNT[Trp(7-Me)]K(Ac)CY(Me2NCH2CH2)[2Nal][Aib]EN[3Pal][Sar]-NH2; disulfide 2-7; lactam N-11), for which the IC50 in series [1] was determined as 0.27 nM. The IC50 in series [2] is 0.22 nM. Also, in the series with Pepsin, the amount remaining at 1 h, 1 µM was 91%. Also, in the series with Pancreatin, the amount remaining at 1 h, 1 µM is 96%; the amount remaining at 2 h, 1 µM is 92%; the share remaining at 4 h, 1 µM is 92%.

Regarding `CCCCCCCCCCCCCCCC(=O)NCCCC[C@]1(C)NC(=O)[C@H](Cc2ccc3ccccc3c2)NC(=O)[C@H](Cc2ccc(OCCN(C)C)cc2)NC(=O)[C@@H]2CSSC[C@H](NC(=O)CCCCNC(=O)CC[C@@H](C(=O)N[C@@H](CC(N)=O)C(=O)N[C@@H](Cc3cccnc3)C(=O)N(C)CC(N)=O)NC1=O)C(=O)NCCCC[C@H](NC(C)=O)C(=O)N[C@@H](Cc1c[nH]c3c(C)cccc13)C(=O)N[C@@H](CCCCNC(C)=O)C(=O)N2` [compound 67] (Ac-K[Trp(7-Me)]K(Ac)CY(Me2NCH2CH2)[2Nal][αMeK](Palmitoyl)EN[3Pal][Sar]-NH2; linker 1-4-8 via X1), the IC50 in series [1] came out at 2.27 nM. In addition, the IC50 in series [2] amounted to 22.6 nM. The share remaining at 1 h, 1 µM in the series on Pepsin was 102%. In the series with Pancreatin, the fraction remaining at 1 h, 1 µM is 99%; the amount remaining at 2 h, 1 µM is 98%; the amount remaining at 4 h, 1 µM is 98%.

Regarding `CC(=O)N[C@H]1CCCCNC(=O)[C@@H]2CSSC[C@H](NC(=O)[C@H](CC(C)C)NC(=O)[C@H](Cc3c[nH]c4c(C)cccc34)NC1=O)C(=O)N[C@@H](Cc1ccc(OCCN(C)C)cc1)C(=O)N[C@@H](Cc1ccc3ccccc3c1)C(=O)N[C@@](C)(CC(C)C)C(=O)N[C@H](C(=O)N[C@@H](CC(N)=O)C(=O)N[C@@H](Cc1cccnc1)C(=O)N(C)CC(N)=O)CCCCN(C)C(=O)CCC(=O)N2` [compound 68] (Ac-K[Trp(7-Me)]LCY(Me2NCH2CH2)[2Nal][αMeL][Lys(Me)]N[3Pal][Sar]-NH2; linker 1-4-8 via X6), the IC50 in series [1] was found to be 1.48 nM. Further, in series [2], the IC50 amounted to 2.69 nM. Also, the share remaining at 1 h, 1 µM in the series with Pepsin was 39%. In the series with Pancreatin, the amount remaining at 1 h, 1 µM was 91%; the amount remaining at 2 h, 1 µM is 91%; the amount remaining at 4 h, 1 µM is 86%.
